In one data set the test system is HCT-116. Briefly: Cytotoxicity against human HCT116 cells after 72 hrs by MTT assay. It counts as functional, cell-based. The note with it: HCT-116, 72 h.
The test system of data set [1] is A549. Nature of the data set: Cytotoxicity against human A549 cells after 72 hrs by MTT assay. Type of data set: functional, cell-based. The conditions noted are these: A549, 72 h. In general terms: Formazan colour is commonly taken as a measure of viable cells.
Another data set relates to MDA-MB-435. Nature of the data set: Cytotoxicity against human MDA-MB-435 cells after 72 hrs by MTT assay. The note with it: MDA-MB-435, 72 h. Type of data set: functional, cell-based.
The subject of the next data set is Mus musculus. Briefly: Toxicity in BALB/C nude mouse xenografted with human A549 cells assessed as weight loss at 2 mg/kg, ip after 5 days relative to vehicle-treated control. Set-up: dose 2 mg/kg, route intraperitoneal. It counts as organism-based. The note with it: in vivo, 120 h. In general terms: In xenograft studies the graft and the host belong to different species.

Data set [2] has as its system A549. Briefly: Antitumor activity against human A549 cells xenografted in BALB/C nude mouse assessed as tumor growth inhibition at 0.5 mg/kg, ip administered for 5 days measured after day 30 to 33 relative to vehicle-treated control. Set-up: dose 0.5 mg/kg. It counts as functional, organism-based.
The subject of data set [3] is A549. Briefly: Antitumor activity against human A549 cells xenografted in BALB/C nude mouse assessed as tumor growth inhibition at 4 mg/kg, ip administered for 5 days measured after day 30 to 33 relative to vehicle-treated control. Type of data set: functional. The note with it: route intraperitoneal, read-out: TGI.
Data set [4] concerns A549. Briefly: Antitumor activity against human A549 cells xenografted in ip dosed BALB/C nude mouse assessed as tumor growth inhibition administered for 5 days measured after day 30 to 33 relative to vehicle-treated control. Type of data set: functional, organism-based.
In data set [5] the test system is A549. Briefly: Antitumor activity against human A549 cells xenografted in BALB/C nude mouse assessed as tumor growth inhibition at 2 mg/kg, ip administered for 5 days measured after day 30 to 33 relative to vehicle-treated control. The conditions noted are these: route intraperitoneal, read-out: TGI. It counts as functional.
Data set [6] relates to A549. Nature of the data set: Cell cycle arrest in human A549 cells assessed as accumulation at S phase at 10 uM after 36 hrs by propidium iodide staining-based flow cytometry. It counts as functional. On the technique in general: A flow cytometer gives signals particle by particle.
Data set [7] has as its system A549. Briefly: Induction of apoptosis in human A549 cells assessed as apoptotic cells at 0.5 uM after 48 hrs by AnnexinV-FITC/propidium iodide staining-based flow cytometry (reference value: 5.23%). Type of data set: functional.
The test system of data set [8] is A549. Nature of the data set: Induction of apoptosis in human A549 cells assessed as small, round floating cells at 10 uM after 48 hrs by immunostaining relative to control. Type of data set: functional, cell-based.
Data set [9] addresses T1, DNA topoisomerase 1 (Homo sapiens) (UniProt P11387).
T1 sequence (whole entry): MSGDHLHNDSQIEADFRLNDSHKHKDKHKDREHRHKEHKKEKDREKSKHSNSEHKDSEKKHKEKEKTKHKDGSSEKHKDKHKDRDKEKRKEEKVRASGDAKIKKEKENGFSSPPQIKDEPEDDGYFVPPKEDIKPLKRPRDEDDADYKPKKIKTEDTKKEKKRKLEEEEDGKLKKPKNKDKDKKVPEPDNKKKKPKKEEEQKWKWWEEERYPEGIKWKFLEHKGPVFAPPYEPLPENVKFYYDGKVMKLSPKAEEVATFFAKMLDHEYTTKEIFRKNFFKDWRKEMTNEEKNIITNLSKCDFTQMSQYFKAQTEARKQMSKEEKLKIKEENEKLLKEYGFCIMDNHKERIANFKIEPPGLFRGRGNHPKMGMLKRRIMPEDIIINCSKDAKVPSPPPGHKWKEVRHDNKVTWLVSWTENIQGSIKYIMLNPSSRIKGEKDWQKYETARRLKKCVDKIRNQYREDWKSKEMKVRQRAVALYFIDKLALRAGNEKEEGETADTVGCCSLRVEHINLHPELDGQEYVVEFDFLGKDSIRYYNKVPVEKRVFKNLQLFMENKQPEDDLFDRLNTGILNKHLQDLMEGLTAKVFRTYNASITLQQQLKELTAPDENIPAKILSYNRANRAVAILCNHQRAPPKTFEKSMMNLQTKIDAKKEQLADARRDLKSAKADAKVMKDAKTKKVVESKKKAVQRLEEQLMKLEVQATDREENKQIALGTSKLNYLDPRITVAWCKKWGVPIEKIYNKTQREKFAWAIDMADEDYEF
Nature of the data set: Inhibition of topoisomerase1 (unknown origin)-mediated DNA cleavage at 100 uM after 15 mins by SDS-PAGE analysis.

Data set [10] deals with DNA topoisomerase 2-alpha (Homo sapiens) (UniProt P11388). Briefly: Inhibition of topoisomerase2 alpha (unknown origin)-mediated supercoiled DNA relaxation at 100 uM after 30 mins by SDS-PAGE analysis.
Chain of DNA topoisomerase 2-alpha (Homo sapiens) (P11388 whole entry): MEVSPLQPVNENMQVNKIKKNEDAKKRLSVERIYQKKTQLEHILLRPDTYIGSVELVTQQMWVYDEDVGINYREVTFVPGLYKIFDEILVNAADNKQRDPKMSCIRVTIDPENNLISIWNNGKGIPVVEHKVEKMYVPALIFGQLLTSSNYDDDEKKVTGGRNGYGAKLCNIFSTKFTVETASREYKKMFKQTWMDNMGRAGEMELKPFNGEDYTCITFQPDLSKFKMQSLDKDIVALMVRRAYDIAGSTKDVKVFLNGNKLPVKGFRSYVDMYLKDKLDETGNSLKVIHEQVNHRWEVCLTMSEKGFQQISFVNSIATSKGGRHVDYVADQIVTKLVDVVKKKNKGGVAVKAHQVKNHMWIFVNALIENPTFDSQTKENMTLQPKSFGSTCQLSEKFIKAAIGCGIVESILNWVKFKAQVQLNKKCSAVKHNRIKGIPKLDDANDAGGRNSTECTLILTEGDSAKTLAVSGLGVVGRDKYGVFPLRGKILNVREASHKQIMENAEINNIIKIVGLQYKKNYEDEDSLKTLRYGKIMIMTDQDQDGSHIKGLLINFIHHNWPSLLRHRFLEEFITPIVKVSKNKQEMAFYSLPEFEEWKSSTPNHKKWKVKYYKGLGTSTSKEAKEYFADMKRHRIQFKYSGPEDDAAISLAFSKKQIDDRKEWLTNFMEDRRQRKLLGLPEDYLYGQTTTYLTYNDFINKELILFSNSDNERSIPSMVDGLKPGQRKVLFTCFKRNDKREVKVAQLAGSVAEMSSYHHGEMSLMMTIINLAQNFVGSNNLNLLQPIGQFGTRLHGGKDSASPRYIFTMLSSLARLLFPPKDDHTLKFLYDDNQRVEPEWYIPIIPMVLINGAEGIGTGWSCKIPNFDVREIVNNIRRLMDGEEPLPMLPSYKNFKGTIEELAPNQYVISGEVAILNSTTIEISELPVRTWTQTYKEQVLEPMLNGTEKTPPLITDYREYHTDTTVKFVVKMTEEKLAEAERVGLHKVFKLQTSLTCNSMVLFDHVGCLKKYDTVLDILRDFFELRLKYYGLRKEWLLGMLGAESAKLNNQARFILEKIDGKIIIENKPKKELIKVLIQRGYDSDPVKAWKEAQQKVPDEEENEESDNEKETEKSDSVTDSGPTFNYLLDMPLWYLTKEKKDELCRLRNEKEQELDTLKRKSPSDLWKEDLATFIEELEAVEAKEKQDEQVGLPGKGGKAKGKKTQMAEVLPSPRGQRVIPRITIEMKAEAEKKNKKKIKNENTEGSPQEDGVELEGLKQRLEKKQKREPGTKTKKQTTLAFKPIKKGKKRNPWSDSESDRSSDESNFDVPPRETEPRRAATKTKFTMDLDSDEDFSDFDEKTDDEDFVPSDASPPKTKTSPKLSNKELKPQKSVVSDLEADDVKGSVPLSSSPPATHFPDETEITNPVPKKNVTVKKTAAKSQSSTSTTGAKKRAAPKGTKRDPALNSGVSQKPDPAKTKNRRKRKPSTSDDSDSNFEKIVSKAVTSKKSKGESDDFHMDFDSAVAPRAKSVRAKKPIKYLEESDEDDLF
Data set [11] is described as follows: Stability of the compound in PBS buffer at pH 7.4. It counts as physicochemical.
Data set [12] deals with T1, DNA topoisomerase 1 (Homo sapiens). Nature of the data set: Inhibition of topoisomerase1 (unknown origin)-mediated supercoiled DNA relaxation at 100 uM after 15 mins by SDS-PAGE analysis.
Data set [13] has as its system A549. Briefly: Cell cycle arrest in human A549 cells assessed as decrease in G0/G1 phase at 10 uM after 36 hrs by propidium iodide staining-based flow cytometry. Type of data set: functional.
Data set [14] in a line: Stability of the compound in PBS buffer at pH 7.4 assessed as compound remaining after 6 hrs by HPLC method. It counts as physicochemical. The note with it: read-out: Stability.

Activity calls are given as the source filed them. No cut-off for these calls is given here.

Turning to `CCCc1c2c(nc3ccccc13)-c1cc3c(c(=O)n1C2)CO[C@@H](F)[C@]3(O)CC`, the IC50 – broadly, the point on the concentration scale where inhibition reaches its midpoint – with HCT-116 was 0.82 µM; in the data set with A549 [1], 2.54 µM; in the data set with MDA-MB-435 it was 2.32 µM.

In the case of `CC[C@]1(O)c2cc3n(c(=O)c2CO[C@H]1F)Cc1c-3nc2ccccc2c1C1CCC1`, the results for the IC50 with HCT-116, in the data set on A549 [1] and with MDA-MB-435 were 95.4 µM, 1 µM and 15.8 µM, respectively.

As for `CC[C@@]1(O)C(=O)OCc2c1cc1n(c2=O)Cc2cc3c(CN(C)C)c(O)ccc3nc2-1` [TOPOTECAN], the Activity entry with Mus musculus was “Toxic”. For the same compound, in the data set with A549 [2], the TGI entry was “Active”.

For the compound `CC[C@]1(O)c2cc3n(c(=O)c2CO[C@H]1F)Cc1c-3nc2ccccc2c1C1CCCCC1` [(20S,21S)-7-CYCLOHEXYLFLUOROCAMPTOTHECIN], the Activity entry in the data set with Mus musculus is recorded as “Non-toxic”; in the data set on A549 [7] it was 94.11%. Further, the inhibition in vivo at 4 mg/kg in the data set on A549 [3] was 63%. In addition, in the data set with A549 [4], the TGI result was “Dose-dependent effect”. Also, in the data set with A549 [5], the inhibition in vivo at 2 mg/kg was determined as 34%. The result in the data set on A549 [6], in the data set on A549 [8] and in the data set with A549 [13] was Active. The inhibition result in data set [9] and in data set [10] was “inactive” each time. Besides, the Stability result in [11] was “Stable”. The IC50 came out at 0.07 µM in the data set on HCT-116, 0.71 µM with A549 [1] and 0.41 µM in the data set with MDA-MB-435. For the same compound, in data set [12], the inhibition result is “Active”.

In the case of `CC[C@]1(O)c2cc3n(c(=O)c2CO[C@@H]1F)Cc1cc2ccccc2nc1-3` [(20S,21R)-FLUOROCAMPTOTHECIN], the IC50 in the data set with HCT-116 is 50.9 µM; in the data set with A549 [1], 46.2 µM; in the data set on MDA-MB-435, more than 100 µM. In addition, the inhibition entry in [12] is “Active”.

With `CC[C@]1(O)c2cc3n(c(=O)c2CO[C@H]1F)Cc1c-3nc2ccccc2c1C1CCCC1`, the IC50 in the data set on HCT-116 was 19.8 µM; in the data set with A549 [1], 4.14 µM; in the data set with MDA-MB-435, 11.8 µM.

As to `CC[C@]1(O)c2cc3n(c(=O)c2CO[C@H]1F)Cc1c-3nc2ccccc2c1C1CC1`, the values for the IC50 with HCT-116, in the data set with A549 [1] and in the data set with MDA-MB-435 were 3.39 µM, 15.5 µM and 9.41 µM, respectively.

In the case of `CC[C@]1(O)c2cc3n(c(=O)c2CO[C@H]1F)Cc1cc2ccccc2nc1-3` [(20S,21S)-FLUOROCAMPTOTHECIN], the values for the IC50 with HCT-116, in the data set on A549 [1] and with MDA-MB-435 were 6.35 µM, 9.95 µM and 58.3 µM, respectively. In addition, in data set [14], the remaining at 6 h amounted to 96%. Also, the inhibition entry in [12] was “Active”.

As for `CCc1c2c(nc3ccc(OC)cc13)-c1cc3c(c(=O)n1C2)CO[C@@H](F)[C@]3(O)CC`, the values for the IC50 in the data set on HCT-116, in the data set with A549 [1] and with MDA-MB-435 were 1.45 µM, 6.35 µM and 12.7 µM, respectively.

For `CC[C@@]1(O)C(=O)OCc2c1cc1n(c2=O)Cc2cc3ccccc3nc2-1` [CAMPTOTHECIN], the results for the IC50 in the data set on HCT-116, with A549 [1] and in the data set on MDA-MB-435 were 0.07 µM, 0.65 µM and less than 0.001 µM, respectively. Further, the remaining at 6 h in data set [14] was determined as 42.7%.

On to `CC[C@]1(O)c2cc3n(c(=O)c2CO[C@H]1F)Cc1cc2c([N+](=O)[O-])cccc2nc1-3`, for which the IC50 in the data set with HCT-116 stood at 1.02 µM; in the data set with A549 [1], 11.3 µM; with MDA-MB-435, 53 µM. The inhibition entry in [12] was “Active”.

Regarding `CC[C@]1(O)c2cc3n(c(=O)c2CO[C@H]1F)Cc1cc2cc(OC)ccc2nc1-3`, the half-inhibitory concentration (IC50) with HCT-116 was 6.15 µM; with A549 [1], 41.7 µM; in the data set on MDA-MB-435 it was more than 100 µM. In addition, in data set [12], the inhibition result was “Active”.

For the compound `CCCCc1c2c(nc3ccccc13)-c1cc3c(c(=O)n1C2)CO[C@@H](F)[C@]3(O)CC`, the IC50 stood at 0.27 µM with HCT-116, 17.7 µM in the data set on A549 [1] and 3.53 µM in the data set on MDA-MB-435. In [12], the inhibition result was “Active”.

With `CC[C@]1(O)c2cc3n(c(=O)c2CO[C@H]1F)Cc1c-3nc2ccccc2c1C(C)C`, the 50% inhibitory concentration (IC50) in the data set on HCT-116 is 65.7 µM; in the data set with A549 [1], more than 100 µM; in the data set with MDA-MB-435 it was 41.1 µM.

For `CC[C@]1(O)c2cc3n(c(=O)c2CO[C@H]1F)Cc1c-3nc2ccccc2c1C`, the IC50 was 1.46 µM in the data set with HCT-116, 4.23 µM in the data set on A549 [1] and 8.66 µM with MDA-MB-435.

Consider `CCc1c2c(nc3ccccc13)-c1cc3c(c(=O)n1C2)CO[C@@H](F)[C@]3(O)CC`, for which the IC50 in the data set with HCT-116 is 8.53 µM; in the data set with A549 [1], 12.7 µM; in the data set on MDA-MB-435 it was 10.9 µM.

The values are drawn from ChEMBL document CHEMBL2434902, “A new strategy to improve the metabolic stability of lactone: discovery of (20S,21S)-21-fluorocamptothecins as novel, hydrolytically stable topoisomerase I inhibitors” (J Med Chem, 2013).
